# Data taken from US20060003364A1, “GLUT1 transporters expressed in cancer cells” (XenoPort, Inc., priority 2004, published 2006).
# Target: T1, GLUT1 (Homo sapiens, UniProt P11166)
# T1 sequence (P11166 1-492): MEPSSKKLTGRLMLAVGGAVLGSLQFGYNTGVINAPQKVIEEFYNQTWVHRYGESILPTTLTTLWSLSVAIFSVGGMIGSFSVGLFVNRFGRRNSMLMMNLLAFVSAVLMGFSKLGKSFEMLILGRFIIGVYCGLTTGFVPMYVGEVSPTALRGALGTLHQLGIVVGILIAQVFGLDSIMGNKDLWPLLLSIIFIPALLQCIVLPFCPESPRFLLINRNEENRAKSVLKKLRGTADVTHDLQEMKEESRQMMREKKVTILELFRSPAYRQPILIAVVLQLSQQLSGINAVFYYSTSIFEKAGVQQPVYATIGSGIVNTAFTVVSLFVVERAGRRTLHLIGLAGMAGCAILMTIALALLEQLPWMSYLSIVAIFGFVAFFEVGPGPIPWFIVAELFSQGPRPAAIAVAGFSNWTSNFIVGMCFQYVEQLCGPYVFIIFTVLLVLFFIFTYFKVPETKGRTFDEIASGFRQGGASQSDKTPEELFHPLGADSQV
# Assay: Radiolabel glucose uptake in Xenopus oocytes expressing GLUT1
# Format: cell-based
# Design: expressed in transfected cells; host or cells: Xenopus oocytes (cRNA injected)
# Settings: oocytes expressing GLUT1 vs noninjected controls; 3 minutes, ND96 buffer
# Method: To assess transport function of a specific transporter protein, it can be desirable to clone the cDNA and express the protein in cells that have low endogenous transport activity. Human GLUT1 was cloned by PCR, fully sequenced, and subcloned into plasmids that can be used for expression in mammalian cells or Xenopus oocytes. […] For expression in Xenopus oocytes, in vitro GLUT1 cRNA was prepared and injected into defoliculated oocytes.
# Oocytes expressing GLUT1 or control oocytes not expressing GLUT1 were incubated in an oocyte ringers (ND96) buffer ([…], 10 mM HemiNa HEPES, 2 mM KCl, 1 mM MgCl, 1.8 mM CaCl2) containing 0.5% bovine serum albumin and 3H-glucose (10^6 CPM/ml) for 3 minutes. Oocytes were washed and uptake of radiolabel quantified by scintillation counting.
row,Molecule,3H-glucose uptake
1,O=C[C@H](O)[C@@H](O)[C@H](O)[C@H](O)CO [^3H-glucose],higher levels of ^3H-glucose uptake than noninjected controls

# Target: T1, GLUT1
# Assay: not given
# Settings: cited from earlier work
row,Molecule,Reported Affinity for GLUT1
1,O=C1O[C@H]([C@@H](O)CO)C(=O)C1=O [Dehydroascorbic Acid],0.8 mM
2,O=C[C@H](O)[C@@H](O)[C@@H](O)[C@H](O)CO [Galactose],4 mM
3,N[C@H]1C(O)O[C@H](CO)[C@@H](O)[C@@H]1O (stereo partly drawn) [Glucosamine],9 mM
4,(S)-methoxy-a-methyl-2-napthalene acetic acid amido galacto pyranose,1 mM
5,Fluorodeoxyglucose,4 mM
